Patent US12286401B2, “Small molecules that sensitize HIV-1 infected cells to antibody dependent cellular cytotoxicity” (THE TRUSTEES OF THE UNIVERSITY OF PENNSYLVANIA, priority 2018, dated 2025)

Legend:
Solubility in PBS = format: physicochemical; conditions: Yes/NO
[1] = tested on: CH58TF infected primary CD4+ T-cells; assay: HIV+ patient sera/plasma recognition of CH58TF infected primary CD4+ T-cells (flow cytometry cell-surface staining); format: cell-based, HIV-1; conditions: for fold induction at 50 µM: Human immunodeficiency virus 1, T-cell, read-out: Fold Over DMSO (patient sera, n = 3); for recognition of infected cells by plasma from 15 HIV-1-infected individuals: 50 μM, 1:1000 diluted HIV+ plasma, result in words
Outline: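 Primary CD4+ T cells from PBMC infected with HIV-1 CH58TF for 48 h, then surface-stained with 1:1000 HIV+ plasma or 5 μg/ml 17b plus 50 μM MCG analogs or DMSO; Alexa Fluor 647 anti-human IgG detection by flow cytometry, infected cells gated p24+. Values are fold change over DMSO.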

CS(=O)(=O)N1CCC[C@H](C(=O)Nc2ccccc2Cl)C1 [(S)-MCG-III-027-C01]
Solubility (in PBS) (Solubility in PBS): Yes | fold induction at 50 µM [1]: 1.06

CS(=O)(=O)N1CCC[C@H](C(=O)Nc2cccc(C(F)(F)F)c2)C1 [(S)-MCG-III-027-B04]
Solubility (in PBS) (Solubility in PBS): Yes | fold induction at 50 µM [1]: 1.47

CS(=O)(=O)N1CCC[C@H](C(=O)Nc2ccc(F)cc2)C1 [(S)-MCG-III-027-A03]
Solubility (in PBS) (Solubility in PBS): Yes | fold induction at 50 µM [1]: 1.52

Cn1cnc(S(=O)(=O)N2CCC[C@H](C(=O)Nc3ccc(Cl)c(F)c3)C2)c1 [(S)-MCG-III-116-A02]
fold induction at 50 µM [1]: 1.97

O=C(Nc1ccc(Cl)c(F)c1)C1CCCOC1 (stereo not shown) [MCG-III-207]
Solubility (in PBS) (Solubility in PBS): Yes | fold induction at 50 µM [1]: 1.92

CS(=O)(=O)N1CCC[C@H](C(=O)Nc2ccc(Br)cc2)C1 [(S)-MCG-III-027-A02]
Solubility (in PBS) (Solubility in PBS): Yes | fold induction at 50 µM [1]: 2.08

CS(=O)(=O)N1CCC[C@H](C(=O)Nc2cccc(Br)c2)C1 [(S)-MCG-III-027-B02]
Solubility (in PBS) (Solubility in PBS): Yes | fold induction at 50 µM [1]: 1.62

COc1cccc(NC(=O)[C@H]2CCCN(S(C)(=O)=O)C2)c1 [(S)-MCG-III-027-B05]
Solubility (in PBS) (Solubility in PBS): Yes | fold induction at 50 µM [1]: 1.71

CS(=O)(=O)N1CCC[C@H](C(=O)Nc2ccc(F)cc2F)C1 [(S)-MCG-III-027-D04]
Solubility (in PBS) (Solubility in PBS): Yes | fold induction at 50 µM [1]: 1.24

NCCNC(=O)N1CCC[C@H](C(=O)Nc2ccc(Cl)c(F)c2)C1 [(S)-MCG-IV-210]
recognition of infected cells by plasma from 15 HIV-1-infected individuals [1]: enhanced the recognition of infected cells

O=C(Nc1ccc(Cl)c(F)c1)C1CCCN(S(=O)(=O)c2ccccc2)C1 (stereo not shown) [MCG-III-157-B03]
fold induction at 50 µM [1]: 3.73

CS(=O)(=O)N1CCC[C@H](C(=O)Nc2ccc(Cl)c(F)c2)C1 [(S)-MCG-III-027-D05]
Solubility (in PBS) (Solubility in PBS): Yes | recognition of infected cells by plasma from 15 HIV-1-infected individuals [1]: enhanced the recognition of infected cells | fold induction at 50 µM [1]: 2.83

CS(=O)(=O)N1CCC[C@H](C(=O)Nc2cccc(Cl)c2)C1 [(S)-MCG-III-027-B01]
Solubility (in PBS) (Solubility in PBS): Yes | fold induction at 50 µM [1]: 1.37

CCCNC(=O)N1CCC[C@H](C(=O)Nc2ccc(Cl)c(F)c2)C1 [(S)-MCG-IV-031-A05]
recognition of infected cells by plasma from 15 HIV-1-infected individuals [1]: enhanced the recognition of infected cells

CS(=O)(=O)N1CCC[C@H](C(=O)Nc2cccc(F)c2)C1 [(S)-MCG-III-027-B03]
Solubility (in PBS) (Solubility in PBS): Yes | fold induction at 50 µM [1]: 1.44

Cn1cnc(S(=O)(=O)N2CCCC(C(=O)Nc3ccc(Cl)c(F)c3)C2)c1 (stereo not shown) [MCG-III-157-B04]
Solubility (in PBS) (Solubility in PBS): Yes | fold induction at 50 µM [1]: 2.4

COC(=O)N1CCC[C@H](C(=O)Nc2ccc(Cl)c(F)c2)C1 [(S)-MCG-III-188-A01]
Solubility (in PBS) (Solubility in PBS): Yes | recognition of infected cells by plasma from 15 HIV-1-infected individuals [1]: enhanced the recognition of infected cells | fold induction at 50 µM [1]: 2.69

CCOC(=O)N1CCC[C@H](C(=O)Nc2ccc(Cl)c(F)c2)C1 [(S)-MCG-III-188-A02]
Solubility (in PBS) (Solubility in PBS): Yes | recognition of infected cells by plasma from 15 HIV-1-infected individuals [1]: enhanced the recognition of infected cells | fold induction at 50 µM [1]: 3.83

CCS(=O)(=O)N1CCC[C@H](C(=O)Nc2ccc(Cl)c(F)c2)C1 [(S)-MCG-III-085-C01]
Solubility (in PBS) (Solubility in PBS): Yes | fold induction at 50 µM [1]: 3.28
